Where two headings read alike, the source gives them in different places.
Assays:
[1] = cited from earlier work; for Potential of activation (fold): per enzyme/prodrug system
[2] = tested on: prodrug-activating enzyme of each system: CA, CD, CPG2, Cyt-450, dCK, HSV-TK, NR, PNP, TP, VZV-TK; conditions: systems: CA/CPT-11, CD/5-FC, CPG2/CMDA, Cyt-450/CP, IF, dCK/ara-C, HSV-TK/GCV, ACV, NR/CB1954, PNP/6-MePdR, TP/5′-DFUR, VZV-TK/ara-M; read-out: KM (S0.5); cited from earlier work
[3] = systems: CA/CPT-11, CD/5-FC, CPG2/CMDA, CJS278, Cyt-450, dCK/ara-C, HSV-TK, NR/CB1954, PNP/6-MePdR, TP/5′-DFUR, VZV-TK/ara-M, XGPRT/6-TX, 6-TG; cited from earlier work
CDy::UPRT_AT-MSCs = assay: Sensitivity of modified AT-MSCs to 5FC and 5FU, MTS assay; type: cell-based, human
Procedure: The cell viability at each time point was measured by standard MTS assay. At various time points, samples without 5FC treatment served as control. […] MTS assay were used to measure cell viability post treatment. Conditions without 5FU treatment was taken as 100%. Results were presented as mean±SD (n=4). […] Isotype antibodies served as respective controls. […] At the end of incubation, cells were stained with Alizarin red S. Calcium deposits stained with Alizarin red S were one of the phenotype indicating differentiated AT-MSCs. […] Fourteen days later, cells were stained with Oil Red-O. This dye stained for oil droplets visible in the cells, indicative of adipogenic differentiation. The images were captured at 20× magnification;
Quadruplicates of AT-MSC, MKN1, MKN45, MDA-MB-231 (10,000 cells per well) and U-251MG (4000 cells per well) for each treatment were plated into 96-well plates. […] One to five days later, plates were subjected to the CellTiter 96 Aqueous One Solution Cell Proliferation Assay (Promega). The colorimetric read out was measured spectrophotometrically at 490 nm. Results were expressed as the percentage of cell viability, in relative to cells in condition without 5-FC or 5-FU (set to 100%).

[4] = prodrug of the enzyme/prodrug system, read-out: Potency, IC50 (μM) Prodrug
[5] = active drug formed from the prodrug of the system, read-out: Potency, IC50 (μM) Drug

Row | Compound | IC50 [1, 4] [µM] | Km [2] [µM] | Degree of activation (fold) [3] | IC50 [1, 5] [µM] | further results
1 | Nc1ccn([C@@H]2O[C@H](CO)[C@@H](O)[C@@H]2O)c(=O)n1 [ara-C] | 0.3 to 0.6 | 25.6 | 2-100 fold |  | 
2 | CCc1c2c(nc3ccc(OC(=O)N4CCC(N5CCCCC5)CC4)cc13)-c1cc3c(c(=O)n1C2)COC(=O)[C@]3(O)CC [CPT-11] | 1.6 to 8.1 |  |  |  | 
3 | Nc1nc(=O)[nH]cc1F [5FC, 5-fluorocytosine] |  |  |  |  | cell viability of CDy::UPRT modified AT-MSCs (CDy::UPRT_AT-MSCs; 150 μg/mL 5FC, over time): reduced cell viability over time
4 | O=c1[nH]c(=O)n([C@H]2C[C@H](O)[C@@H](CO)O2)cc1F [5-FUdR] |  |  |  | 0.0023 | 
5 | O=c1[nH]cc(F)c(=O)[nH]1 [5FU, 5-fluorouracil] |  |  |  | 4 to 23.5 | susceptibility of CDy::UPRT_AT-MSCs versus unmodified AT-MSCs (CDy::UPRT_AT-MSCs; 100 μg/mL 5FU, 5 days): increased susceptibility of suicide effect
6 | O=P1(N(CCCl)CCCl)NCCCO1 (centres unmarked) [CP] | ~4000 | 300 |  |  | 
7 | NC(=O)c1cc(N2CC2)c([N+](=O)[O-])cc1[N+](=O)[O-] [CB1954] | > 1000 | 900 | 14-10,000 fold |  | Potential of activation (fold) [1]: >50,000 fold
8 | CCc1c2c(nc3ccc(O)cc13)-c1cc3c(c(=O)n1C2)COC(=O)[C@]3(O)CC [SN-38] |  |  |  | 0.003 to 0.011 | 
9 | CS(=O)(=O)OCCN(CCCl)c1ccc(C(=O)N[C@@H](CCC(=O)O)C(=O)O)cc1 [CMDA] | 1700 to 3120 | 3.4 |  |  | 
10 | Nc1nc(O)c2ncn(COC(CO)CO)c2n1 [GCV, ganciclovir] | 200 to 600 |  |  |  | 
11 | Cc1ncnc2c1ncn2[C@H]1C[C@H](O)[C@@H](CO)O1 [6-MePdR] | > 200 | 14 to 23 | 40 fold |  | Potential of activation (fold) [1]: 25-1,000 fold
12 | COc1cccc2c1C(=O)c1c(O)c3c(c(O)c1C2=O)C[C@@](O)(C(=O)CO)C[C@@H]3O[C@H]1C[C@H](N)[C@H](O)[C@H](C)O1 [Doxorubicin] |  |  | 11 fold | 0.012 | Potential of activation (fold) [1]: 21 fold
13 | Cc1ncnc2nc[nH]c12 |  |  |  | 3.7 | 
14 | C[C@H]1O[C@@H](n2cc(F)c(=O)[nH]c2=O)[C@H](O)[C@@H]1O [5′-DFUR] | 17 | 325 to 433 | 165 fold |  | Potential of activation (fold) [1]: 7000 fold
15 | COc1ncnc2c1ncn2[C@@H]1O[C@H](CO)[C@@H](O)[C@@H]1O [ara-M] | > 2000 | 56 | 55-600 fold |  | Potential of activation (fold) [1]: >2,000 fold
16 | O=P1(NCCCl)OCCCN1CCCl (centres unmarked) [IF] | ~4000 | 480 |  |  | 
17 | Nc1nc(=S)c2[nH]cnc2[nH]1 [6-TG] | 0.5 |  | 6-TG: 10 fold |  | 
18 | CS(=O)(=O)OCCN(CCCl)c1ccc(C(=O)O)cc1 [CMBA] |  |  |  | 8 to 65 | 
19 | O=c1[nH]c(=S)c2[nH]cnc2[nH]1 [6-TX] | > 50 |  | 6-TX: >20; fold |  | 

Source: patent US20220265723A1, “NON-VIRAL MODIFICATION OF MESENCHYMAL STEM CELLS” (NATIONAL UNIVERSITY OF SINGAPORE, priority 2019, published 2022)
